Results published in the supplement of paper PMC4862054.

Columns and labels:
Experiment in all cases: normalised response (% of control), CellTiter-Glo; higher = more viable cells (100 = DMSO, 0 = benzethonium chloride kill control)
Settings in all cases: incubation time: 72 h
[1] = test system: MCF-10A
Method in brief: (§1)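 The table gives the normalised signal for a single concentration in each entry. Breast cancer cell lines were seeded (20 µl suspension) into 384-well plates holding compound at 5 concentrations in 10-fold steps over a compound-specific 10,000-fold range and incubated 72 h, then read for CellTox Green fluorescence (485/520 nm) and CellTiter-Glo luminescence. Normalisation on each plate used 0.1 % DMSO (100) and a positive kill control (0).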

[2] = test system: CAL-120
Method in brief: as §1

[3] = test system: CAL-51
Method in brief: as §1

[4] = test system: MDA-MB-231
Method in brief: as §1

[5] = test system: CAL-148
Method in brief: as §1

[6] = test system: CAL-85-1
Method in brief: as §1

[7] = test system: BT-474
Method in brief: as §1

[8] = test system: DU-4475
Method in brief: as §1

[9] = test system: SK-BR-3
Method in brief: as §1

[10] = test system: MDA-MB-436
Method in brief: as §1

[11] = test system: MDA-MB-468
Method in brief: as §1

[12] = test system: HCC1143
Method in brief: as §1

[13] = test system: BT-549
Method in brief: as §1

[14] = test system: HCC1599
Method in brief: as §1

[15] = test system: MFM-223
Method in brief: as §1

[16] = test system: HDQ-P1
Method in brief: as §1

[17] = test system: Hs578T
Method in brief: as §1

[18] = test system: MDA-MB-453
Method in brief: as §1

[19] = test system: HCC1937
Method in brief: as §1

Row | Compound | normalised response [1] [%] | normalised response [2] [%] | normalised response [3] [%] | normalised response [4] [%] | normalised response [5] [%] | normalised response [6] [%] | normalised response [7] [%] | normalised response [8] [%] | normalised response [9] [%] | normalised response [10] [%] | normalised response [11] [%] | normalised response [12] [%] | normalised response [13] [%] | normalised response [14] [%] | normalised response [15] [%] | normalised response [16] [%] | normalised response [17] [%] | normalised response [18] [%] | normalised response [19] [%]
1 | CC/C(=C(\c1ccc(O)cc1)c1ccc(OCCN(C)C)cc1)c1ccccc1 [4-hydroxytamoxifen] (1 nM) | 101 | 98.6 | 91.2 | 96.6 | 102 | 100 | 101 | 99.4 | 107 | 103 | 98.8 | 95 | 107 | 96 | 101 | 97.7 | 108 | 107 | 99.6
2 | O=C(Nc1c[nH]nc1-c1nc2ccc(CN3CCOCC3)cc2[nH]1)NC1CC1 [AT9283] (1 nM) | 101 | 93.4 | 103 | 102 | 94.5 | 98.7 | 95.7 | 102 | – | 103 | 97.5 | 102 | 97.3 | 101 | 103 | 103 | 98.7 | 98.6 | 102
3 | C[C@]12C=CC(=O)C=C1CC[C@@H]1[C@@H]2[C@@H](O)C[C@@]2(C)[C@H]1CC[C@]2(O)C(=O)CO [Prednisolone] (1 nM) | 104 | 110 | 84.8 | 102 | 110 | 96.9 | 106 | 108 | 110 | 102 | 106 | 96.9 | 112 | 102 | 102 | 101 | 102 | 112 | 96.9
4 | O=C(CCBr)N1CCN(C(=O)CCBr)CC1 [Pipobroman] (10 nM) | 109 | 99.5 | 89.7 | 98.2 | 105 | 102 | 102 | 106 | 107 | 98.8 | 108 | 100 | 101 | 117 | 101 | 105 | 101 | 104 | 104
5 | CS(=O)(=O)N1CCN(Cc2cc3nc(-c4cccc5[nH]ncc45)nc(N4CCOCC4)c3s2)CC1 [Pictilisib] (10 nM) | 102 | 91.4 | 110 | 94.2 | 105 | 103 | 98.3 | 102 | 105 | 98.9 | 101 | 99.8 | 95.7 | 102 | 96.7 | 95.3 | 96.3 | 101 | 99.7
6 | Cc1cccc(-c2nn3c(c2-c2ccnc4ccc(C(N)=O)cc24)CCC3)n1 [Galunisertib] (1 nM) | 102 | 101 | 92.5 | 105 | 123 | 99.5 | 109 | 107 | – | 108 | 104 | 111 | 102 | 103 | 107 | 102 | 103 | 115 | 99
7 | O=S(=O)(c1cccc2cnccc12)N1CCCNCC1 [Fasudil] (50 nM) | 104 | 94.3 | 117 | 99.9 | 102 | 97 | 97.8 | 104 | – | 106 | 101 | 102 | 101 | 98.5 | 99.3 | 96.6 | 94.9 | 104 | 99.4
8 | CNC(=O)c1cc(Oc2ccc(NC(=O)Nc3ccc(Cl)c(C(F)(F)F)c3)cc2)ccn1 [Sorafenib] (0.1 nM) | 95.7 | 100 | 118 | 107 | 106 | 101 | 105 | 101 | 102 | 102 | 101 | 99.7 | 104 | 103 | 98.8 | 99.7 | 98.3 | 108 | 97.7
9 | c1cc(CN2CCCNCCNCCCNCC2)ccc1CN1CCCNCCNCCCNCC1 [Plerixafor] (10 nM) | 81.5 | 96.2 | 82.7 | 99 | 91.1 | 93.1 | 97.2 | 91.1 | – | 97.3 | 94.1 | 105 | 99.6 | 95.2 | 88.6 | 103 | 97.7 | 81.9 | 102
10 | Cn1cc(CNCC2CCN(c3ncc(C(=O)NO)cn3)CC2)c2ccccc21 [Quisinostat] (0.1 nM) | 109 | 103 | 84.2 | 106 | 109 | 107 | 104 | 103 | 108 | 101 | 109 | 105 | 99.8 | 92.9 | 104 | 100 | 96.5 | 109 | 99.6
11 | CCCCC/C=C/C=C1/C(=O)C=C[C@@H]1C/C=C\CCCC(=O)O [15D-PGJ2] (0.08 nM) | 103 | 102 | 96.8 | 106 | 108 | 95.3 | 102 | 96.6 | 106 | 102 | 95.8 | 102 | 98.4 | 101 | 103 | 104 | 99.6 | 111 | 94.5
12 | CS(=O)(=O)N1CCN(Cc2cc3nc(-c4cccc5[nH]ncc45)nc(N4CCOCC4)c3s2)CC1 [Pictilisib] (1 nM) | 102 | 93.9 | 102 | 101 | 93.1 | 119 | 92.7 | 104 | 107 | 91.1 | 99.5 | – | 104 | 96.8 | 104 | 97.3 | 99.7 | 112 | 95
13 | CCC/C=C/C=C/C(=O)O[C@H]1/C(=C/C(=O)OC)C[C@H]2C[C@H]([C@@H](C)O)OC(=O)C[C@H](O)C[C@@H]3C[C@H](OC(C)=O)C(C)(C)[C@](O)(C[C@@H]4C/C(=C/C(=O)OC)C[C@H](/C=C/C(C)(C)[C@]1(O)O2)O4)O3 [Bryostatin 1] (0.1 nM) | 109 | 91.1 | 119 | 103 | 115 | 98.2 | 103 | 97 | – | 107 | 94.3 | 101 | 95.8 | 116 | 105 | 91.5 | 95.5 | 97.7 | 99
14 | CO[C@@H](C(=O)N1Cc2[nH]nc(NC(=O)c3ccc(N4CCN(C)CC4)cc3)c2C1)c1ccccc1 [Danusertib] (10 nM) | 103 | 93.4 | 113 | 96.6 | 95.7 | 94.9 | 102 | 102 | – | 105 | 87.1 | 95.7 | 99.7 | 98.1 | 103 | 97.9 | 99.2 | 103 | 93.8
15 | Cc1nc(Nc2ncc(C(=O)Nc3c(C)cccc3Cl)s2)cc(N2CCN(CCO)CC2)n1 [Dasatinib] (1 nM) | 90 | 98.9 | 106 | 87.9 | 93.7 | 101 | 93.5 | 96.4 | – | 94.5 | 95.6 | 97.9 | 103 | 115 | 97.7 | 93.5 | 103 | 101 | 99.6
16 | Nc1ccccc1NC(=O)c1ccc(CNc2nccc(-c3cccnc3)n2)cc1 [Mocetinostat] (10 nM) | 106 | 97 | 129 | 103 | 98.1 | 95.7 | 98.4 | 105 | – | 99.1 | 101 | 97.6 | 98.3 | 94.3 | 100 | 110 | 103 | 105 | 104
17 | CC[C@@]1(O)C(=O)OCc2c1cc1n(c2=O)Cc2cc3c(CN(C)C)c(O)ccc3nc2-1 [Topotecan] (10 nM) | 92.7 | 96.1 | 91.9 | 94.1 | 103 | 95.8 | 98.2 | 95.4 | – | 94.4 | 97.6 | 93.9 | 90.3 | 93.2 | 99.9 | 98.4 | 100 | 104 | 95.8
18 | C[C@]12O[C@H](C[C@]1(O)CO)n1c3ccccc3c3c4c(c5c6ccccc6n2c5c31)CNC4=O [Lestaurtinib] (1 nM) | 96.6 | 93.9 | 133 | 99.8 | 100 | 104 | 104 | 97.7 | – | 100 | 102 | 102 | 97.3 | 90.8 | 101 | 95.4 | 101 | 94.3 | 98.9
19 | Cc1ccc(Nc2nccc(N(C)c3ccc4c(C)n(C)nc4c3)n2)cc1S(N)(=O)=O [Pazopanib] (10 nM) | 97.2 | 91.9 | 82.8 | 98.2 | 104 | 100 | 98.2 | 107 | – | 107 | 104 | 102 | 93.9 | 100 | 98 | 97.2 | 94.8 | 109 | 100
20 | O=C(NC[C@H](O)CO)c1ccncc1Nc1ccc(I)cc1F [Pimasertib] (10 nM) | 66.6 | 103 | 124 | 97.6 | 90.8 | 87.8 | 102 | 83.9 | – | 107 | 91.9 | 94.2 | 91.4 | 105 | 99.2 | 81.1 | 92.2 | 99.7 | 102
21 | CNC(=O)c1cc(Oc2ccc(NC(=O)Nc3ccc(Cl)c(C(F)(F)F)c3)cc2)ccn1 [Sorafenib] (1 nM) | 105 | 98.2 | 119 | 102 | 114 | 104 | 104 | 103 | – | 96.4 | 106 | 100 | 94.7 | 109 | 107 | 102 | 102 | 93.8 | 101
